The source of these data is article PMC10569065, “Major distinctions between the two oligopeptide permease systems of Bacillus subtilis with respect to signaling, development and evolutionary divergence” (Microbiology, 2023).

Where no end group is shown, it is not given here.

One assay has as its system App permease. As to conditions: previous work; cited from earlier work. The source says:
App was also as effective as Opp in uptaking the PapR pentapeptide, but not in importing the PhrC/F/P pentapeptides. Previous work has identified several App transported peptides, including the nonapeptide […] [[2, 50]].

The target in assay [1] is T1, Opp permease (Opp-only strain O+;A-, expressing RapC, RapF or RapP) (Bacillus subtilis, UniProt P24141).
T1 construct: full deletion mutants of the App (Opp-only; O^+;A^-) and Opp (App-only; O^-;A^+) operons; endogenous in cells; host or cells: Bacillus subtilis 3610 (plasmid-free), Opp-only strains O+;A- (AES7204, AES7202, AES5524, AES7207)
T1 sequence (P24141 21-545): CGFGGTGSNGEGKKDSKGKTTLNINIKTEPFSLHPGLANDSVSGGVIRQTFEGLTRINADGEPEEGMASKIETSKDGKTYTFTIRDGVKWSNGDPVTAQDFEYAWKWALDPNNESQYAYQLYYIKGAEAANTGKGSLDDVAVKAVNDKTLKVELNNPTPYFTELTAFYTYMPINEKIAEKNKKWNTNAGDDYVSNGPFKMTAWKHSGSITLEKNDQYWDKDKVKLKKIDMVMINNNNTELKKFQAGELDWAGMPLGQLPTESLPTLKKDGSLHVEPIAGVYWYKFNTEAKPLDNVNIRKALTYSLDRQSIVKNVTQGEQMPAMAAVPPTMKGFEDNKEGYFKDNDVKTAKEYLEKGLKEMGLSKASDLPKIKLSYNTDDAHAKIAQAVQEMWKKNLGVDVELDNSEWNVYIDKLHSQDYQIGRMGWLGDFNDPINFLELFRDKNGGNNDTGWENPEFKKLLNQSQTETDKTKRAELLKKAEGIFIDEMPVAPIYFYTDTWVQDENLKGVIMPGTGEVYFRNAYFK
The experiment in a line: Co-culture PsrfA-3×yfp reporter response to added Phr peptide, Opp-only strain. The format is cell-based. The protocol: (§1) Flow cytometry was performed to quantify gene expression at the single-cell level, using a Beckman-Coulter Gallios flow-cytometer equipped with four lasers (405 nm, 488 nm co-linear with 561 nm, 638 nm). The emission filters used were as follows: BFP – 450/50, YFP – 525/40, mCherry – 620/30. Two methods were used to distinguish between co-cultured cells. Strains coding for rapP where transformed by plasmids carrying either an mCherry or mTag2-BFP genes under a constitutive promoter. For the rest of the strains, the same constructs were integrated into the bacterial genome at the lacA locus. YFP levels were measured relative to a set voltage, which was approximately set such that a value of 1 will be given to autofluorescence of strain PY79 in SMM medium.
(§2) Cells were grown to OD600 <0.1, in SMM medium containing trace elements and glucose, then diluted by a factor of 10^6 or 10^7 into fresh SMM medium and grown for about 16 h in exponential phase. In co-culture gene-expression experiments, each strain was grown from a single colony in SMM to OD600 <0.1 or diluted to 0.1 prior to strain mixing. The two strains were mixed at equal volumes and then diluted by a factor of 10^6 or 10^7 in fresh SMM medium. Samples were taken from cultures at several time-points. At each time point OD600nm was measured using a spectrophotometer and fluorescence was measured using a flow cytometry. […]

Assay [2] relates to App permease (App-only strain O-;A+, expressing RapC, RapF or RapP). Put plainly: Co-culture PsrfA-3×yfp reporter response to added Phr peptide, App-only strain. As to conditions: co-culture with Opp-only strain, SMM, 3 h after peptide addition, PhrP increase at concentrations higher than 1 µM. The format is cell-based, Bacillus subtilis. As for the experimental part:
as §1, §2

The test system of assay [3] is ɸ3T infection of B. subtilis 3610 plasmid-free permease variants. The experiment in a line: Phage ɸ3T infection dynamics (optical density) in presence of arbitrium peptide. The format is cell-based, Bacillus subtilis. As to conditions: ɸ3T m.o.i.=0.1 in LB. The protocol: Overnight culture grown in LB of the appropriate strain was diluted by a factor of 1 : 100 into fresh containing 0.1 mM MnCl2 and 5 mM MgCl2. The strains were then grown at 37 °C with shaking at 220 r.p.m. Upon reaching an of OD600=0.3, the strains infected with free ɸ3T at m.o.i.=0.1 and supplemented with 10 µM of the synthetic peptide SAIRGA. Optical density measurements at a wavelength of 600 nm were performed in a 96-well plate using a plate reader (PerkinElmer VICTOR Nivo 622 Multimode Plate Reader).
We wondered whether App is capable of transporting the signalling molecules of arbitrium, the second RRNPP system found in B. subtilis phages. The B. subtilis phage φ3T utilizes an arbitrium system with the small peptide SAIRGA to control the lysis-lysogeny and induction decisions [[17, 22]]. Increased signal concentration tilts the decision towards lysogeny. To further examine the impact of App and Opp on quorum-sensing-dependent activation of φ3T horizontal transfer, we utilized a plate reader to examine the phage infection dynamics by monitoring its impact on optical density during infection of the different variants in Lysogeny Broth (LB) medium.
Fig. 4. […] Growth curves are represented as the mean optical density (dark colour) and its error (light grey) as a function of time (minutes) taken using a plate-reader. […]

Assay [4] has as its target T2, Opp permease (Opp-only strain O+;A-, AES7207, expressing PlcR) (Bacillus subtilis, UniProt P24141).
T2 construct: full deletion mutants of the App (Opp-only; O^+;A^-) and Opp (App-only; O^-;A^+) operons; endogenous in cells; host or cells: Bacillus subtilis 3610 (plasmid-free), Opp-only strains O+;A- (AES7204, AES7202, AES5524, AES7207)
The experiment in a line: Co-culture PplcA-3×yfp reporter of PlcR receivers, Opp-only strain. The format is cell-based. The protocol:
as §1
(§3) Cells were grown to OD600 <0.1, in SMM medium containing trace elements and glucose, then diluted by a factor of 10^6 or 10^7 into fresh SMM medium and grown for about 16 h in exponential phase. In co-culture gene-expression experiments, each strain was grown from a single colony in SMM to OD600 <0.1 or diluted to 0.1 prior to strain mixing. […] At each time point OD600nm was measured using a spectrophotometer and fluorescence was measured using a flow cytometry. […]
(§4) Fig. 8. […] YFP levels were measured for single cells using flow cytometry 3 h after the peptide was added. […] Biological repeats at the same concentrations were measured on different days. […]

Assay [5] addresses T3, App permease, App^3610 allele (App-only strain O-;A+, AES7075, expressing PlcR) (Bacillus subtilis, UniProt P42061).
T3 construct: full deletion mutants of the App (Opp-only; O^+;A^-) and Opp (App-only; O^-;A^+) operons; endogenous in cells; host or cells: Bacillus subtilis 3610 (plasmid-free), App-only strain O-;A+ (AES7075)
The experiment in a line: Co-culture PplcA-3×yfp reporter of PlcR receivers, App-only strain (App3610). The format is cell-based. The protocol:
as §1, §3, §4

For assay [6], the system named is Opp permease (Opp-only strain O+;A-, AES7413, expressing RapA). The experiment in a line: Co-culture PspoIIG-3×yfp early sporulation reporter, RapA strain, Opp-only. The format is cell-based, Bacillus subtilis. As to conditions: 10 µM peptide, SMM with very low glucose, 3 h, ON = 10-fold higher than background. The protocol:
as §1
(§5) Cells were grown to OD600 <0.1, in SMM medium containing trace elements and glucose, then diluted by a factor of 10^6 or 10^7 into fresh SMM medium and grown for about 16 h in exponential phase. […] At each time point OD600nm was measured using a spectrophotometer and fluorescence was measured using a flow cytometry. […]
(§6) Fig. 5. […] ON cells are determined as the cells that have expressed P spoIIG-3 ×yfp 10-fold higher than background. […] YFP levels were measured for single cells using flow cytometry 3 h after the peptide was added to co-culture of both strains, App and Opp. […]

Assay [7] relates to App permease (App-only strain O-;A+, AES7410, expressing RapA). The experiment in a line: Co-culture PspoIIG-3×yfp early sporulation reporter, RapA strain, App-only. The format is cell-based, Bacillus subtilis. As to conditions: maximal peptide concentration, SMM with very low glucose, 3 h. As for the experimental part:
as §1, §5, §6

T3 sequence (P42061 24-543): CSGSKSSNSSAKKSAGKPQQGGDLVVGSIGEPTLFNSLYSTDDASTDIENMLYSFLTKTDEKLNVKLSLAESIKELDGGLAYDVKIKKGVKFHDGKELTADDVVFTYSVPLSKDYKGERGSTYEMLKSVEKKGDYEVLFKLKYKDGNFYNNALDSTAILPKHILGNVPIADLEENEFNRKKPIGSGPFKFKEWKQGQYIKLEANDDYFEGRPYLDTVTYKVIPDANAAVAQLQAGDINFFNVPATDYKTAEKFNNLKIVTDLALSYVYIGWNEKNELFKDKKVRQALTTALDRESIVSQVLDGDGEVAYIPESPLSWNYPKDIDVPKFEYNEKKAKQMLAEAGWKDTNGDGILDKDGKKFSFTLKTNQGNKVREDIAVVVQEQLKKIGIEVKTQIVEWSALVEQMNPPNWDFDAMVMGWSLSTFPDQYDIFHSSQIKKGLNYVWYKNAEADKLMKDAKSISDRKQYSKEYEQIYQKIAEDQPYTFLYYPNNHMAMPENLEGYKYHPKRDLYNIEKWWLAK
T2 sequence (P24141 21-545): as the sequence (P24141 21-545) above

For “FLEEI [pentapeptide reported in previous work as transported by App]”, the “transport by App” value with App permease is recorded as “able to transport”.

With QRGMI [PhrF], the concentration for a half-maximal effect (EC50) (in general, the concentration at which the effect is half-maximal) in assay [1] is < 10 nM. In addition, the “YFP levels (PsrfA-3×yfp) with increasing peptide concentrations, App-only strains” value in assay [2] was “marginally increased”.

For the substance ERGMT [PhrC], the 50% effective concentration (EC50) in assay [1] was < 10 nM. The “YFP levels (PsrfA-3×yfp) with increasing peptide concentrations, App-only strains” value in assay [2] is given as “marginally increased”.

For “SAIRGA [synthetic arbitrium hexapeptide of B. subtilis phage φ3T]”, in assay [3] (AES6372, 10 µM peptide), the “optical density on ɸ3T infection with peptide, App-only (O-;A+)” value is recorded as “marked reduction in optical density”. The “lysis on ɸ3T infection with peptide, WT (O+;A+)” value in assay [3] (WT DS2569, 10 µM peptide added at OD600=0.3, plate reader OD600) was “did not lyse”.

Consider “FGFG [tetrapeptide reported in previous work as transported by App]”, for which the “transport by App” value in the assay on App permease is given as “able to transport”.

On to LPFEF [penta-PapR], for which the EC50 in assay [4] stood at 650 nM; in assay [5], 290 nM.

Take “ARNQT [PhrA, synthetic PhrA signalling pentapeptide (ARNQT) of the RapA-PhrA system]”: in assay [6], the “percentage of cells with high YFP levels (ON cells, PspoIIG-3×yfp)” value is reported as ~ 20%. The “fraction of sporulating cells (ON cells, PspoIIG-3×yfp)” value in assay [7] is recorded as 0.2%.
